From ChEMBL document CHEMBL1139607, “Synthetic lanostane-type triterpenoids as inhibitors of DNA topoisomerase II” (Bioorg Med Chem Lett, 2005)

Experiments:
DNA topoisomerase II = DNA topoisomerase II (Homo sapiens, UniProt P11388+Q02880); assay: Inhibitory concentration against human DNA topoisomerase II; type: protein assay
A549 = assay: Effective dose on human lung carcinoma (A549) cells; type: functional; settings: read-out: ED50 (the source's name)

SMILES | IC50 (DNA topoisomerase II) [µM] | EC50 (A549) [µM]
C[C@H](CC[C@@H](O)C(C)(C)O)[C@H]1CC[C@]2(C)C3CCC4C(C)(C)C(=O)C=C[C@]4(C)C3=CC[C@]12C (some centres not stated) | 149.97 | 26.9
C[C@H](CC[C@@H](O)C(C)(C)O)[C@H]1CC[C@]2(C)C3CCC4C(C)(C)C(=O)C(C#N)=C[C@]4(C)C3=CC[C@]12C (some centres not stated) | 83.23 | 25.5
COC1=C[C@]2(C)C3=CC[C@]4(C)[C@@H]([C@H](C)CC[C@@H](O)C(C)(C)O)CC[C@]4(C)C3CCC2C(C)(C)C1=O (some centres not stated) | 22.7 | 29.6
C[C@H](CC[C@@H](O)C(C)(C)O)[C@H]1CC[C@]2(C)C3CCC4C(C)(C)C(=O)C(Cl)=C[C@]4(C)C3=CC[C@]12C (some centres not stated) | 106.8 | 38.1

Stronger by EC50 (A549), values ahead:

IC50 (DNA topoisomerase II) [µM] | EC50 (A549) [µM] | SMILES
18.27 | 14.3 | C[C@H](CC[C@@H](O)C(C)(C)O)[C@H]1CC[C@]2(C)C3CCC4C(C)(C)C(=O)C(Br)=C[C@]4(C)C3=CC[C@]12C (some centres not stated)
1.86 | 13.1 | C[C@H](CC[C@@H](O)C(C)(C)O)[C@H]1CC[C@]2(C)C3CCC4C(C)(C)C(=O)C(C=O)=C[C@]4(C)C3=CC[C@]12C (some centres not stated)
23.8 | 7.33 | C[C@H](CC[C@@H](O)C(C)(C)O)[C@H]1CC[C@]2(C)C3CCC4C(C)(C)C(=O)C(C(=O)O)=C[C@]4(C)C3=CC[C@]12C (some centres not stated)
66.51 | 3.96 | COC(=O)C1=C[C@]2(C)C3=CC[C@]4(C)[C@@H]([C@H](C)CC[C@@H](O)C(C)(C)O)CC[C@]4(C)C3CCC2C(C)(C)C1=O (some centres not stated)
– | 3.39 | COc1cc([C@@H]2c3cc4c(cc3[C@@H](O[C@@H]3O[C@@H]5CO[C@@H](C)O[C@H]5[C@H](O)[C@H]3O)[C@H]3COC(=O)[C@H]23)OCO4)cc(OC)c1O [ETOPOSIDE]
